Reference: patent publication US8101663B2, “Polymorphs of suberoylanilide hydroxamic acid” (Merck HDAC Research, LLC, priority 2002, dated 2012)
Values joined by “and” are separate entries in the source; they are usually repeats but may differ in a detail not shown here. Equal values may be shown once.

Assays:
[1] = tested on: murine erythroleukemia cells (MELC); settings: without continuing drug exposure; cited from earlier work
[2] = tested on: solid tumors, Hodgkin's or non-Hodgkin's lymphomas, leukemia; assay: Anti-tumor response in patients on oral SAHA; type: in vivo
Description: (§1) In another experiment, twenty-five patients with solid tumors have been enrolled onto arm A, thirteen patients with Hodgkin's or non-Hodgkin's lymphomas have been enrolled onto arm B, and one patient with acute leukemia and one patient with myelodysplastic syndrome have been enrolled onto arm C, as shown in Table 4.
Thirteen patients continued treatment for 3-12 months with responding or stable disease: thyroid (n=3), sweat gland (n=1), renal (n=2), larynx (n=1), prostate (n=1), Hodgkin's lymphoma (n=2), non-Hodgkin's lymphoma (n=2), and leukemia (n=1).
Six patients had tumor shrinkage on CT scans. Three of these six patients meet the criteria of partial response (one patient with metastatic laryngeal cancer and two patients with non-Hodgkin's lymphomas). These partial responses occurred at the dose levels of 400 mg BID (n=2) and 600 mg QD (n=1).

[3] = Interim pharmacokinetic analysis of oral SAHA, dose escalation study; type: in vivo, patients
Method: as §1
The interim pharmacokinetic analysis was based on 18 patients treated on the dose levels of 200 mg QD, 400 mg QD, and 400 mg BID. […] Overall, the fraction of AUCinf due to extrapolation was 1% or less.

[4] = Serum plasma levels of SAHA after IV and oral dosing (HPLC assay, LCMS using a deuterated standard); type: in vivo, humans; settings: human
Method: Objectives: To define a safe daily oral regimen of SAHA that can be used in Phase II studies. In addition, the pharmacokinetic profile of the oral formulation of SAHA was be evaluated. The oral bioavailability of SAHA in humans in the fasting vs. non-fasting state and anti-tumor effects of treatment were also monitored. Additionally, the biological effects of SAHA on normal tissues and tumor cells were assessed and responses with respect to levels of histone acetylation were documented.
Patients: Patients with histologically documented advanced stage, primary or metastatic adult solid tumors that are refractory to standard therapy or for which no curative standard therapy exists. Patients must have a Karnofsky Performance Status of ≧70%, and adequate hematologic, hepatic and renal function. Patients must be at least four weeks from any prior chemotherapy, radiation therapy or other investigational anticancer drugs.
Dosing Schedule: On the first day, patients were first treated with 200 mg of intravenously-administered SAHA. Starting on the second day, patients were treated with daily doses of oral SAHA according to Table 1. Each cohort received a different dose of SAHA. “QD” indicates dosing once a day; “Q12 hours” indicates dosing twice a day. For example, patients in Cohort IV received […] of SAHA per day. Doses were administered to patients daily and continuously. Blood samples were taken on day one and on day 21 of oral treatment. Patients were taken off oral SAHA treatment due to disease progression, tumor regression, unacceptable side effects, or treatment with other therapies.
Cmax is the maximum concentration of SAHA observed after administration. IV SAHA was administered at 200 mg infused over two hours. The oral SAHA was administered in a single capsule at 200 mg. Tables 2 and 3 summarize the results of an HPLC assay (LCMS using a deuterated standard) that quantitates the amount of SAHA in the blood plasma of the patients versus time, using acetylated histone-4 (α-AcH4) as a marker.

[5] = tested on: acetylated histones in peripheral mononuclear cells; assay: Histone acetylation in peripheral blood mononuclear cells after SAHA capsules (anti-acetylated histone H3 antibody); type: in vivo, patients; settings: 400 mg per day dose level, preliminary analysis
Method: Peripheral blood mononuclear cells were collected pre-therapy, immediately post-infusion and between 2-10 hours after oral ingestion of the SAHA capsules to assess the effect of SAHA on the extent of histone acetylation in a normal host cell. Histones were isolated and probed with anti-acetylated histone (H3) antibody followed by HRP-secondary antibody.

[6] = type: in vivo, patients; settings: once a day, continuous
Description: as §1
Among eleven patients treated in Cohort II, one patient experienced the DLT of grade 3 diarrhea and grade 3 dehydration during the first treatment cycle. Nine patients were entered into Cohort III. Two patients were inevaluable for the 28-day toxicity assessment because of early study termination due to rapid progression of disease. Of the seven remaining patients, five experienced DLT during the first treatment cycle: diarrhea/dehydration (n=1), fatigue/dehydration (n=1), anorexia (n=1), dehydration (n=1) and anorexia/dehydration (n=1). These five patients recovered in approximately one week after the study drug was held. They were subsequently dose reduced to 400 mg QD which appeared to be well tolerated. The median days on 400 mg BID for all patients in Cohort III was 21 days. […] Following protocol amendment, accrual was continued in cohort IV at a dose of 600 mg once a day. Of the seven patients enrolled onto cohort IV, two were inevaluable for the 28-day toxicity assessment because of early study termination due to rapid progression of disease. […]

[7] = tested on: carcinogen-induced (N-methylnitrosourea) mammary tumors; settings: rats, SAHA in the diet over 130 days; cited from earlier work
[8] = iv, 200 mg, Patient #1, IV, 200 mg infused over two hours
[9] = iv, 200 mg, Patient #2, IV, 200 mg infused over two hours
[10] = po, 200 mg, Patient #1, oral (fasting), single capsule 200 mg
[11] = po, 200 mg, Patient #1, oral (nonfasting), single capsule 200 mg
[12] = po, 200 mg, Patient #2, oral (fasting), single capsule 200 mg
[13] = po, 200 mg, Patient #2, oral (nonfasting), single capsule 200 mg

CC(=O)NCCCCCCNC(C)=O [HMBA, N,N′-hexamethylene bisacetamide]
Minimum duration of continuous exposure required to induce differentiation in a substantial portion (>20%) of the population [1]: about 36 hours

O=C(CCCCCCC(=O)Nc1ccccc1)NO [SAHA, suberoylanilide hydroxamic acid]
Patients meeting the criteria of partial response ([2]; dose levels 400 mg BID (n=2) and 600 mg QD (n=1), laryngeal cancer, non-Hodgkin's lymphomas): Three | Patients with tumor shrinkage on CT scans ([2]; oral SAHA): Six | Patients who continued treatment for 3-12 months with responding or stable disease ([2]; oral SAHA, 40 patients enrolled): Thirteen | bioavailability ([3]; human, plasma, calculated from the AUCinf values after the IV infusion and oral routes, read-out: Bioavailable fraction of SAHA): ~48% | half-life ([3]; human, plasma, oral, across dose groups 200 mg QD, 400 mg QD, 400 mg BID, fasting or with food, 18 patients, read-out: Mean estimates for apparent half-life): 1.02 to 1.9 h | Cmax ([3]; human, plasma, oral, dose levels 200 mg QD, 400 mg QD, 400 mg BID, 18 patients, read-out: Mean estimates of Cmax): 233 ng/mL to 570 ng/mL and 880 nM to 2.3 µM | Dose dependence of mean estimates of Cmax and AUCinf ([3]; oral, fasting or with food, 200 mg to 400 mg dose range): increased proportionally with dose | half-life ([4]; Patient #2, oral (fasting), single capsule 200 mg): 1.37 h | AUC [4, 8]: 2550 ng·h/mL | Cmax [4, 8]: 1330 ng/mL | half-life [4, 8]: 0.333 h | AUC [4, 9]: 1800 ng·h/mL | Cmax [4, 9]: 1000 ng/mL | half-life [4, 9]: 0.35 h | AUC [4, 10]: 417 ng·h/mL | Cmax [4, 10]: 225 ng/mL | half-life [4, 10]: 1.33 h | AUC [4, 11]: 983 ng·h/mL | Cmax [4, 11]: 328 ng/mL | half-life [4, 11]: 1.07 h | AUC [4, 12]: 1050 ng·h/mL | Cmax [4, 12]: 362 ng/mL | AUC [4, 13]: 998 ng·h/mL | Cmax [4, 13]: 302 ng/mL | half-life [4, 13]: 1.55 h | Time after ingestion up to which increased accumulation of acetylated histones could be detected [5]: up to 10 hours | Maximally tolerated dose for once daily oral administration [6]: 400 mg | Effect on development and continued growth of mammary tumors [7]: effective at inhibiting the development and continued growth
